Legend:
[1] = system: Human peripheral blood mononuclear (PBM) cells; test: PHA-stimulated lymphocyte proliferation (3H-thymidine uptake); type: cell-based; conditions: Example 17
From the text: A lymphocyte cell culture system was used to examine the ability of various polypeptides and conjugates to mimic the ability of Apo E to inhibit lymphocyte differentiation as evidence by proliferation.
Human peripheral blood mononuclear (PBM) cells are isolated from whole blood on a Ficoll-Hypaque gradient. The collected PBMs are washed three times with fresh medium (RPMI-1640 plus 5% fetal bovine serum, glutamine, penicillin, streptomycin and HEPES buffer). After washing, the cells are counted and set at a density of 1×10^5 /ml. For culture, 0.2 ml of the cells are plated per well of a 96-well microtiter plate. The peptide or conjugate is added to the wells in a 50 ul volume that can be either filter or UV sterilized. The typical timing for this experiment is to expose the cells to the Apo E polypeptide or self-conjugate over night. PHA, the mitogen that stimulates lymphocyte growth and proliferation, is added the next day. Forty-eight hours after the addition of PHA, 1 uCi of ^3 H-thymidine is added per well in a 1 ul volume and 18-24 hours later the cells are harvested on a mash. The mash cell harvester functions to collect the cells on filter paper where they are washed with buffer to remove free ^3 H-thymidine. The filter papers are dried, put into scintillation vials with scintillation cocktail and the B emissions obtained. Each data point collected represents the average thymidine uptake in four wells, and the standard error was less than 10% for all data points.
Various concentrations of various Apo E peptide were added to cultures that contained 8×10^5 peripheral blood mononuclear cells per ml. The cells were cultured at 37C and RPMI with 5% serum. All cells were exposed to PHA at 24 hours, labeled with 3H-thymidine at 72 hours and harvested at 90 hours. The counts per minute (cpm) of 3H-thymidine in the harvested cells was measured, and the data are expressed as the mean of four wells per treatment as a measure of thymidine uptake (x 1000 cpm). The standard deviation was less than 10% for all means.

LDL receptor = LDL receptor (Homo sapiens, UniProt P01130); test: fibroblast 125I-LDL degradation; type: cell-based; parameters: transferred to DMEM medium with 10% lipoprotein-depleted serum (LPDS) for 48 hr to upregulate the LDL receptors; endogenous in cells; host or cells: normal fibroblasts; conditions: low concentrations of the tandem peptide
LDL receptor, sequence (P01130 22-860): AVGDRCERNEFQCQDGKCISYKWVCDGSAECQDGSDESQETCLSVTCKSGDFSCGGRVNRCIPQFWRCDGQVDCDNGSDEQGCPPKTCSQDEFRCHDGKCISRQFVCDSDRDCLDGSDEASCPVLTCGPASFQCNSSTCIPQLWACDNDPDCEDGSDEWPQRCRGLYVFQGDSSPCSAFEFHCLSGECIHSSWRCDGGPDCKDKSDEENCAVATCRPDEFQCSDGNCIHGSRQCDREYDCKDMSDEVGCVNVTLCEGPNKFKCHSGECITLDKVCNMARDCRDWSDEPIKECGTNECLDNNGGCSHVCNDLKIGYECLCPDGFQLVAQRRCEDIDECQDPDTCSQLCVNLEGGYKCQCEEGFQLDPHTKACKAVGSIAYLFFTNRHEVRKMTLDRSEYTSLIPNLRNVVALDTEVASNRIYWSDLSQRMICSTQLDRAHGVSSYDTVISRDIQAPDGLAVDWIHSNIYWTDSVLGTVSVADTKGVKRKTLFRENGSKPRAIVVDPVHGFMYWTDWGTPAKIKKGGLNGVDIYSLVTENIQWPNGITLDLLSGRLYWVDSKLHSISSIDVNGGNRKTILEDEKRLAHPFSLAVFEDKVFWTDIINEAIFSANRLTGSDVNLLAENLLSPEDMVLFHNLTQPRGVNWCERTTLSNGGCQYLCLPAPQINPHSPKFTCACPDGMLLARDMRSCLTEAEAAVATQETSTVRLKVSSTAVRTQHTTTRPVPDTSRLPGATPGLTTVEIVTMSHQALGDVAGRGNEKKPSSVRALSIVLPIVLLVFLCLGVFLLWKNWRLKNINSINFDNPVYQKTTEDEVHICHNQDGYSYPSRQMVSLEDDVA
Description: A trimer of the p141-155 peptide, p(141-155)3, was synthesized as in Example 1 and its activity compared with p(141-155) (monomeric) and with p(141-155)2 (dimeric) peptide. Normal fibroblasts were plated in wells of a 96-well culture plate and grown for 96 hr in DMEM medium with 10% FBS. The cells were transferred to DMEM medium with 10% LPDS for 48 hr to up regulate the LDL receptors. The LDL degradation assay was performed according to Example 9 with 2 μg/ml of ^125 I-LDL (300-500 cpm/ng) in 0.2 ml/well in DMEM medium with 10% LPDS and incubated for 5 hr at 37° C. The supernatants removed from the wells were extracted with 10% TCA. The TCA soluble counts were normalized to protein content per well as measured by the Bio-Rad protein assay.

[2] = system: ovarian theca/interstitial cells; test: ovarian androgen (androstenedione) production, LH-stimulated cultures; type: cell-based, rats; conditions: 48 hours
From the text: The cell system used to examine the effect of various peptides and conjugates on ovarian androgen production was that described by Curtiss et al., J. Biol. Chem., 263:10965, (1988). Briefly, hypophysectomized (pituitary removed) immature female rats are sacrificed by cervical dislocation. The ovaries taken from the rats were trimmed free of fat and other non-ovarian tissues, cut into approximately six to eight pieces per ovary and dissociated in a solution of collagenase Dnaase which degrades the connective tissue releasing cell clusters. Approximately one to two hours of 37C incubation is required to dissociate the tissue. The cells were washed three times with fresh McCoy's 5A modified medium supplemented with glutamine and penicillin/streptomycin. No serum was added to this medium. The cells were cultured over night in 10 ml of medium in a T-25 flask to allow the non-steroidogenic cells to adhere. The next day non-adherent cells were recovered, washed three times with fresh media, counted and plated at a density of 1×10^3/ ml aliquotting 0.2 ml per well of a 96-well microtiter plate. All media in the experiment contains luteinizing hormone (LH) at 4 ng/ml and human high density lipoprotein (HDL) at 300 μg protein/mi. Monomeric peptides, peptide-BSA conjugates and self-conjugated peptide preparations at various concentrations (0.2 to 50 μg/ml) were added to the cells. The cells were then cultured for 48 hours at 37C, the supernatants were recovered, transferred to a clean 96-well microtiter plate and kept at -20C until the concentrations of androstenedione and progesterone were measured by radioimmunoassay. Each data point represents the average of measured androstenedione concentrations in four wells per treatment, and the standard error was less than 10% for all data points.
The ability of tandem Apo E peptide p(141-155)2 and self-conjugates of this peptide to affect ovarian androgen production was examined using the assay described in Example 4. […] After 48 hours of culture, the supernatants were collected, the androstenedione concentration measured by radioimmunoassay. […]

## CC(C)C[C@H](NC(=O)[C@H](CC(=O)O)NC(=O)[C@H](CC(=O)O)NC(=O)[C@H](C)NC(=O)[C@H](CC(=O)O)NC(=O)[C@H](CCCNC(=N)N)NC(=O)[C@H](CC(C)C)NC(=O)[C@H](CC(C)C)NC(=O)[C@H](CCCNC(=N)N)NC(=O)[C@H](CCCCN)NC(=O)[C@H](CCCNC(=N)N)NC(=O)[C@H](CC(C)C)NC(=O)[C@H](CCCCN)NC(=O)[C@H](CCCNC(=N)N)NC(=O)[C@H](CC(C)C)NC(=O)[C@H](CC(C)C)NC(=O)[C@H](CC(=O)O)NC(=O)[C@H](CC(=O)O)NC(=O)[C@H](C)NC(=O)[C@H](CC(=O)O)NC(=O)[C@H](CCCNC(=N)N)NC(=O)[C@H](CC(C)C)NC(=O)[C@H](CC(C)C)NC(=O)[C@H](CCCNC(=N)N)NC(=O)[C@H](CCCCN)NC(=O)[C@H](CCCNC(=N)N)NC(=O)[C@H](CC(C)C)NC(=O)[C@H](CCCCN)NC(=O)[C@H](CCCNC(=N)N)NC(=O)[C@@H](N)CC(C)C)C(=O)O [p(141-155)2]
[1]
  ED50 or dose of peptide required to inhibit lymphocyte proliferation 50%: 20 µM
LDL receptor
  effect on LDL degradation by fibroblasts: significant enhancement
[2]
  concentrations at which androstenedione production was enhanced: less than 0.04 μg/ml
[2]; dose-dependent
  concentrations that inhibited androstenedione production: 0.2 to 2 µg/mL
